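Tested at 5 concentrations; 48 h exposure; 96-well plates; endpoints linearly interpolated, else capped at highest concentration. GI50 marks 50% less growth. TGI marks complete inhibition of growth.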
Columns and labels:
Assay in all cases: DTP human tumour cell line panel, 48 h
HL-60(TB) leukemia = system: HL-60(TB) leukemia
SN12C renal = system: SN12C renal
M19-MEL melanoma = system: M19-MEL melanoma
SNB-75 CNS = system: SNB-75 CNS
NCI-H460 lung = system: NCI-H460 lung
A549 NSCLC = system: A549 NSCLC
HCC-2998 colon = system: HCC-2998 colon
LOX IMVI melanoma = system: LOX IMVI melanoma
RPMI-8226 leukemia = system: RPMI-8226 leukemia
HT29 colon = system: HT29 colon

SMILES | TGI (HL-60(TB) leukemia) | TGI (SN12C renal) | TGI (M19-MEL melanoma) | TGI (SNB-75 CNS) | TGI (NCI-H460 lung) | TGI (A549 NSCLC) | TGI (HCC-2998 colon) | TGI (LOX IMVI melanoma) | TGI (RPMI-8226 leukemia) | TGI (HT29 colon) | GI50 (HL-60(TB) leukemia) | GI50 (SN12C renal) | GI50 (SNB-75 CNS) | GI50 (NCI-H460 lung) | GI50 (A549 NSCLC) | GI50 (HCC-2998 colon) | GI50 (LOX IMVI melanoma) | GI50 (RPMI-8226 leukemia) | GI50 (HT29 colon)
Cc1cc(=O)[nH]c(NN2C(Cl)C(=O)C2c2c(O)ccc3ccccc23)n1 (stereo not drawn) | 49.3 µM | 69.5 µM | > 100000 nM | 39.2 µM | 29.6 µM | > 100 µM | 32.6 µM | 32.7 µM | 53500 nM | 74000 nM | – | – | – | – | – | – | – | – | –
c1ccc(C2=NN[C@H](c3cn(-c4ccccc4)nc3-c3ccccc3)C2)cc1 | > 100 µM | > 100 µM | – | 4.19 µM | > 100 µM | > 100 µM | > 100 µM | > 100 µM | > 100000 nM | > 100000 nM | > 100 µM | 4.18 µM | 2050 nM | 4.26 µM | 4.02 µM | > 100 µM | 3.33 µM | > 100 µM | > 100 µM
Cc1n(CC(C)C)c2c([n+]1CC(=O)c1ccc([N+](=O)[O-])cc1)C(=O)c1ccccc1C2=O | < 0.01 µM | 0.0107 µM | < 17.5 nM | 0.641 µM | 1.38 µM | 0.933 µM | 1.18 µM | 0.131 µM | 757 nM | 550 nM | – | – | – | – | – | – | – | – | –
C=CCCCCn1c2ccccc2c2c(C)c3c[n+](C)ccc3c(C)c21 | 0.921 µM | – | 1410 nM | – | – | 4.52 µM | – | – | 1430 nM | 1750 nM | – | – | – | – | – | – | – | – | –

Reference: PubChem BioAssay (NCI)
